# Measured values published in patent publication US20220017486A1, “DOCK1-INHIBITING COMPOUND AND USE THEREOF” (KYUSHU UNIVERSITY, NATIONAL UNIVERSITY CORPORATION, priority 2018, published 2022).
# Entries after “also recorded” stand apart in the source; their conditions may differ.
# Experiments:
# [1] = tested on: T cells (mouse spleen cells); assay: Viability of lymphocytes (propidium iodide, flow cytometry); format: cell-based; conditions: in words, 1-hour culture
# Procedure: Specifically, 1×10^6 mouse spleen cells were suspended in 100 μL of RPMI-1640 medium containing 0.5% BSA, and DMSO in which a predetermined concentration of each test compound was dissolved or DMSO alone was added thereto to a final DMSO concentration of 0.2%. After 1-hour culture at 37° C., 2 μL of a propidium iodide staining solution (BD Pharmingen) was added and incubated on ice for 30 minutes, followed by flow cytometry analysis. The percentage of the viable cells under each condition was calculated, considering negative cells to be viable cells.
# [2] = tested on: mouse lung carcinoma cell line (3LL); assay: Tumor growth of subcutaneously transplanted mouse lung carcinoma cells; format: in vivo, C57BL/6 mice
# Procedure: The mouse lung carcinoma cell line (3LL) was suspended in 200 μL of PBS(−), and transplanted (5×10^5 cells per mouse) into the dorsal subcutaneous region of C57BL/6 mice (6 weeks old). To a 6:1:1 mixture of PBS/Cremophor EL/ethanol, RT-22 as a representative of the compounds of the present invention was added to a concentration of 0.25 mg/300 μL, and the resulting mixture was loaded into an SMP-300 micro infusion pump (iPRECIO), which was subcutaneously implanted on the previous day of the transplantation, to perform continuous intravenous administration (n=5 mice). The control group was only administered with an equivalent volume of a solvent (a 6:1:1 mixture of PBS/Cremophor EL/ethanol) (n=6 mice). The transverse and longitudinal diameters of the tumor mass were measured over time for a period of 4 weeks from the start of administration, and the tumor volume (V) was calculated according to the formula: V=π/6x√((transverse diameter×longitudinal diameter)^3).
# [3] = tested on: mouse lung carcinoma cell line (3LL cells); assay: Cell invasion inhibition assay (Matrigel invasion chamber); format: cell-based; conditions: in words
# Procedure, shortened: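 Matrigel invasion chambers (8 μm pores); cells in serum-free DMEM above, 10% FCS DMEM below, compound in both, 0.2% DMSO final. 3LL (K-Ras G12C), PANC02 and MDA-MB-157 (Rac1 P29S) cultured 22 h (3LL, PANC02) or 48 h (MDA-MB-157) at 37° C. Invaded cells Diff-Quick-stained and counted; % invasion vs DMSO control, % inhibition = 100 − % invasion.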
# [4] = tested on: mouse lung carcinoma cell line (3LL cells) and mouse pancreatic cancer cell line (PANC02 cells); assay: Inhibition of macropinocytosis in cancer cells (TMR-dextran uptake); format: cell-based; conditions: in words, 3LL and PANC02 cells
# Procedure: Therefore, this Pharmacological Test evaluated the inhibitory effect of the compounds of the present invention on macropinocytosis in a mouse lung carcinoma cell line (3LL cells) and a mouse pancreatic cancer cell line (PANC02 cells) as a target. Specifically, 150 μL of mouse lung carcinoma cell line (3LL) or mouse pancreatic cancer cell line (PANC02) (4×10^4 cells) was seeded on the glass portion of fibronectin-coated glass-bottom culture dishes. After 16-hour culture at 37° C., the medium was changed to DMEM (serum free), and cultured for another 24 hours to allow the cells to be serum-starved. Subsequently, the medium was changed to 2 mL of serum-free medium containing DMSO alone (control) or DMSO in which each test compound was dissolved, followed by culture for 1 hour for pretreatment. The final concentration of DMSO was adjusted to 0.2 mass %.
# DMSO alone (control) or DMSO in which a predetermined concentration of each test compound was dissolved was added in the same manner as above to TMR-dextran (final concentration: 500 μg/mL)-containing DMEM (with 10 mass % FBS), and the thus-obtained medium (180 μL) was added to the cancer cells pretreated as above, followed by incubation at 37° C. for 1 hour. […] The macropinocytosis activity was measured based on the number of TMR-dextran spots per cell. […]
compound,measurement,setting,value
"COC(=O)c1cc(S(=O)(=O)N2CCCC2)cn1CC(=O)c1ccc(-c2cccc(C(F)(F)F)c2)cc1 [RT-22, methyl 1-(2-oxo-2-(3′-(trifluoromethyl)-[1,1′-biphenyl]-4-yl)ethyl)-4-(pyrrolidin-1-yl-sulfonyl)-1H-pyrrole-2-carboxylate]",viability of T cells,[1],no effect
same,tumor size as % of that of the control group,"[2]; 3LL s.c. in C57BL/6 mice, continuous intravenous administration, 0.25 mg/300 μL, day 26 to day 29",64 to 69%
same,tumor growth inhibition compared with TBOPP,[2]; in words,more effective in inhibiting tumor growth than TBOPP
same,percent cell invasion inhibition compared with TBOPP,[3],higher percent cell invasion inhibition than TBOPP; also recorded: higher than those of TBOPP
same,macropinocytosis activity in cancer cells,[4],inhibitory effect on macropinocytosis activity
